US20250019385A1, “SPIROCYCLIC ANNULATED 2-AMINO-3-CYANO THIOPHENES AND DERIVATIVES FOR THE TREATMENT OF CANCER” (Boehringer Ingelheim International GmbH, priority 2023, published 2025)

How the values were obtained:
Ba/F3 cells KRAS G12C = test: Ba/F3 proliferation assay (KRAS G12C); type: cell-based; details: Mus musculus, BaF3, 72 h, AlamarBlue viability
Method in brief: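 Ba/F3 cells retrovirally transduced with KRAS G12 mutant, puromycin-selected, grown IL-3-independent; seeded in RPMI-1640 + 10% FCS without IL-3. Logarithmic compound dose series in duplicate, 72 h at 37° C., AlamarBlue fluorescence as % of DMSO control; IC50 from four-parameter non-linear regression.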

SK-CO-1 cells = test: SK-CO-1 CTG proliferation assay (120 h) (CRC, G12V); type: cell-based; details: Homo sapiens
Description: (§1) SK—CO-1 cells (ATCC HTB-39) are dispensed into black 384-well plates, flat and clear bottom (Greiner, PNr. 781091) at a density of 500 cells per well in 60 μl EMEM (Sigma M5650)+10% FCS (fetal calf serum, HyClone, SH30084.03). Cells are incubated overnight at 37° C. in a humidified tissue culture incubator at 5% CO2. Compounds (10 mM stock in DMSO) are added at logarithmic dose series using the ECHO acoustic liquid handler system (Beckman Coulter), normalizing for added DMSO and including DMSO controls. All compound treatments are performed in technical duplicates. For the TO time point measurement, untreated cells are analyzed at the time of compound addition. Plates are incubated for 120 h, and cell viability is measured using CellTiter-Glo luminescent cell viability reagent (Promega product code G7570). Viability (stated as percent of control) is defined as relative luminescence units RLU of each well divided by the RLU of cells in DMSO controls. IC50 values are determined from viability measurements by non-linear regression using a four-parameter model.
(§2) IC50 values of representative compounds according to the invention measured with these assays in the indicated cell lines are presented in Table 46.

LOVO cells = test: LOVO CTG proliferation assay (120 h) (CRC, G13D); type: cell-based; details: Homo sapiens
Description: as §1, with “LOVO” for “SK—CO-1”, “No. CCL-229)” for “HTB-39)”, “1000” for “500”, “DMEM” for “EMEM”, “D6429)+10%” for “M5650)+10%”
as §2

[1] = Metabolic (microsomal) stability assay, human liver microsomes (HLM); type: in vitro ADME; details: 1 μM test compound, predicted clearance as percent of liver blood flow

| IC50 (Ba/F3 cells KRAS G12C) [nM] | IC50 (SK-CO-1 cells) [nM] | IC50 (LOVO cells) [nM] | HLM QH [1] [%] | Structure (SMILES) |
| --- | --- | --- | --- | --- |
| 4 | 4 | 2 | 80 | CO[C@H]1CCN(C)[C@@H]1[C@H](C)Oc1nc(-c2noc3c2CCC[C@@]32CCCc3sc(N)c(C#N)c32)nc2c1n(C)c(=O)n2[C@@H]1CCOC1 [II-1] |
| 4 | 3 | 8 | 40 | C[C@H](Oc1nc(-c2noc3c2CCC[C@@]32CCCc3sc(N)c(C#N)c32)nc2c1n(C)c(=O)n2[C@@H]1CCOC1)[C@@H]1CCCN1C [II-2] |
| 3 | 5 | 2 | 80 | CO[C@H]1CCN(C)[C@@H]1[C@H](C)Oc1nc(-c2noc3c2CCC[C@@]32CCCc3sc(N)c(C#N)c32)nc2c1n(C)c(=O)n2[C@@H]1CCCOC1 [II-3] |
| 12 | 10 | 24 | 40 | C[C@H](Oc1nc(-c2noc3c2CCC[C@@]32CCCc3sc(N)c(C#N)c32)nc2c1cnn2[C@@H]1CCOC1)[C@@H]1CCCN1C [II-4] |

Further lines, the compound ahead of its results:

| Structure (SMILES) | IC50 (Ba/F3 cells KRAS G12C) [nM] | IC50 (SK-CO-1 cells) [nM] | IC50 (LOVO cells) [nM] | HLM QH [1] [%] |
| --- | --- | --- | --- | --- |
| Cc1cc2c(O[C@@H](C)[C@@H]3CCCN3C)nc(-c3onc4c3CCC[C@@]43CCCc4sc(N)c(C#N)c43)nc2n1[C@@H]1CCOC1 [I-40] | 23 | 39 | 43 | 37 |
| Cc1cn([C@@H]2CCOC2)c2nc(-c3onc4c3CCC[C@@]43CCCc4sc(N)c(C#N)c43)nc(O[C@@H](C)[C@@H]3CCCN3C)c12 [I-41] | 122 | 18 | 348 | <24 |
| Cc1nn([C@@H]2CCOC2)c2nc(-c3onc4c3CCC[C@@]43CCCc4sc(N)c(C#N)c43)nc(O[C@@H](C)[C@@H]3CCCN3C)c12 [I-42] | 17 | 46 | 107 | 36 |
| C[C@H](Oc1nc(-c2onc3c2CCC[C@@]32CCCc3sc(N)c(C#N)c32)nc2c1cnn2[C@@H]1CCOC1)[C@@H]1CCCN1C [I-43] | 32 | 56 | 15 | <24 |
| C[C@H](Oc1nc(-c2onc3c2CCC[C@@]32CCCc3sc(N)c(C#N)c32)nc2c1n(C)c(=O)n2[C@@]12COC[C@@H]1C2)[C@@H]1CC[C@H](C)N1C [I-45] | 1 | 4 | 9 | 41 |
| CO[C@@H]1C[C@@H]([C@H](C)Oc2nc(-c3onc4c3CCC[C@@]43CCCc4sc(N)c(C#N)c43)nc3c2n(C)c(=O)n3[C@@]23COC[C@@H]2C3)N(C)C1 [I-46] | 2 | 4 | 21 | 34 |
| C[C@H](Oc1nc(-c2onc3c2CCC[C@@]32CCCc3sc(N)c(C#N)c32)nc2c1COC[C@]21CCOC1)[C@@H]1CCCN1C [I-54] | 2 | 3 | 4 | 31 |
| C[C@H](Oc1nc(-c2onc3c2CCC[C@@]32CCCc3sc(N)c(C#N)c32)nc2c1CN(C1COC1)C[C@]21CCOC1)[C@@H]1CC[C@H](C)N1C [I-55] | 3 | 6 | 26 | 52 |
| C[C@H](Oc1nc(-c2onc3c2CCC[C@@]32CCCc3sc(N)c(C#N)c32)nc2c1CN(C1COC1)C[C@]21CCOC1)[C@@H]1CCCN1C [I-56] | 4 | 7 | 43 | <24 |
| CO[C@H]1CCN(C)[C@@H]1[C@H](C)Oc1nc(-c2onc3c2CCC[C@@]32CCCc3sc(N)c(C#N)c32)nc2c1CN(C1COC1)C[C@]21CCOC1 [I-57] | 3 | 7 | 39 | 61 |
| CO[C@@H]1C[C@@H]([C@H](C)Oc2nc(-c3onc4c3CCC[C@@]43CCCc4sc(N)c(C#N)c43)nc3c2CN(C2COC2)C[C@]32CCOC2)N(C)C1 [I-58] | 4 | 9 | 84 | 52 |
